Target: T1, Protein mono-ADP-ribosyltransferase TIPARP (Homo sapiens, UniProt Q7Z3E1)
T1 sequence (Q7Z3E1 whole entry): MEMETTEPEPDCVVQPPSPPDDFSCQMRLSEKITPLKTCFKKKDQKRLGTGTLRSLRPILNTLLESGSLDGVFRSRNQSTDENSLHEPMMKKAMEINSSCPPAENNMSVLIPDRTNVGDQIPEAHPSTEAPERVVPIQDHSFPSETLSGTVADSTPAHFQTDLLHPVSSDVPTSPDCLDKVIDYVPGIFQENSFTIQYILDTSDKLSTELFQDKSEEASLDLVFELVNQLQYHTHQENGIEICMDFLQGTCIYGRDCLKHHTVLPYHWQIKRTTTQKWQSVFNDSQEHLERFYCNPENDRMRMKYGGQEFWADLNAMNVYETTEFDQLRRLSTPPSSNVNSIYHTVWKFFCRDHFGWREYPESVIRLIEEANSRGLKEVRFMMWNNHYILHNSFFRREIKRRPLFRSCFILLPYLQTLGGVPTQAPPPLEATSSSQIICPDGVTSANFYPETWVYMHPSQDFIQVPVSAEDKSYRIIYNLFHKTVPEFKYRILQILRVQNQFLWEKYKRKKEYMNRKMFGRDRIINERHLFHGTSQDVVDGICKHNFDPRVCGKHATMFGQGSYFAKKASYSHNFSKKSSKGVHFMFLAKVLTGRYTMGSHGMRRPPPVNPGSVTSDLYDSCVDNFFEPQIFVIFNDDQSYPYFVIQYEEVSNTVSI
Experiment: Enzymatic Assay for Inhibition of PARP7: Displacement of Probe A, a biotinylated probe binding to the TIPARP active site, was measured using a time-resolved fluorescence energy transfer (TR-FRET) assay. 20 nL of a dose response curve of each test compound was spotted in black 384-well polystyrene proxiplates (Perkin Elmer) using a Mosquito (TTP Labtech). Reactions were performed in a 8 μL volume by adding 6 μL of TIPARP and Probe A in assay buffer (20 mM HEPES pH=8, 100 mM NaCl, 0.1% bovine serum albumin, 2 mM DTT and 0.002% Tween20), incubating with test compound at 25° C. for 30 min, then adding 2 μL of ULight-anti 6×His and LANCE Eu-W1024 labeled streptavidin (Perkin Elmer). The final concentrations of TIPARP and Probe A were 6 nM and 2 nM, respectively. The final concentration of ULight-anti 6xHis and LANCE Eu-W1024 labeled streptavidin were 4 nM and 0.25 nM, respectively. Reactions were incubated at 25° C. for an additional 30 min, then read on an Envision platereader equipped with a LANCE/DELFIA top mirror (Perkin Elmer) using excitation of 320 nm and emission of 615 nm and […] with a 90 μs delay. The ratio of the 665/615 nm emission were calculated for each well to determine the amount of complex of TIPARP and Probe A in each well. […] The Hill Coefficient is normally allowed to float but may also be fixed at 1 in a 3-parameter fit. Y is the % inhibition and x is the compound concentration.

SMILES: N#Cc1ccc(N2CCN(C(=O)CC3COCCN3c3cn[nH]c(=O)c3C(F)(F)F)CC2)nc1 (stereo not drawn)
- IC50: < 100 nM

SMILES: N#Cc1ccc(N2CCN(C(=O)[C@H]3C[C@H](OC[C@@H]4CCCN4c4cn[nH]c(=O)c4C(F)(F)F)C3)CC2)nc1
- IC50: < 100 nM

SMILES: C[C@@H](COCCC(=O)N1CCC(Nc2ncc(C(F)(F)F)s2)C1)Nc1cn[nH]c(=O)c1C(F)(F)F (stereo partly drawn)
- IC50: < 100 nM

SMILES: O=C(CCOC[C@H](Nc1cn[nH]c(=O)c1C(F)(F)F)C1CCNCC1)N1CCN(c2ncc(C(F)(F)F)cn2)CC1
- IC50: < 100 nM

SMILES: O=C(COC[C@@H]1CCCN1c1cn[nH]c(=O)c1C(F)(F)F)N[C@H]1CC[C@@H](Nc2ccccn2)CC1
- IC50: 100 to 1000 nM

SMILES: N#Cc1ccc(N2CCN(C(=O)CCOCCOC3CN(c4cn[nH]c(=O)c4C(F)(F)F)C3)CC2)nc1
- IC50: > 1000 nM

SMILES: O=c1[nH]ncc(N2Cc3cccc(O)c3C2)c1C(F)(F)F
- IC50: < 100 nM

SMILES: O=C(CCOC[C@@H]1CCCN1c1cn[nH]c(=O)c1C(F)(F)F)N[C@H]1CC[C@H](Nc2ccccn2)CC1
- IC50: 100 to 1000 nM

Reference: ChEMBL document CHEMBL5727538, “Pyridazinones as PARP7 inhibitors” (2020)
